Laboratory results from patent US20230390247A1, “BIPHENYL PYRROLIDINE AND BIPHENYL DIHYDROIMIDAZOLE DERIVATIVES FOR INHIBITING ACTIVITY OF 5-HT7 SEROTONIN RECEPTOR, AND PHARMACEUTICAL COMPOSITION COMPRISING SAME AS ACTIVE INGREDIENT” (priority 2020, published 2023).

Tests used:
Format in all cases: cell-based
[1] = target: T1, 5-HT7R (Homo sapiens (Human), UniProt P34969); assay: Schild plot for Tango assay; conditions: compounds at 5 μM, 10 μM and 30 μM with serotonin, read-out: pA2 (converted)
Protocol: Schild plots were constructed for the Tango assay in order to investigate the effect of the compounds on the activity of the β-arrestin signaling pathway. After culturing cells and replacing the culture medium as described in b) of Test Example 1, the cells were transfected and prepared on a plate. 6 hours later, the cells were treated with 10 μL of the solution of serotonin or the compounds at final concentrations of 5 μM, 10 μM and 30 μM. […] In addition, the pA2 value was obtained using the Excel software. The Schild plots and pA2 values of compound 23 and compound 30 according to the present disclosure are summarized in FIGS. 1A-1B, FIG. 2 and Table 8.

[2] = target: T1, 5-HT7R; assay: Tango assay (β-arrestin signaling system); conditions: HTLA cells transfected with 5-HT7R-TCS-tTA construct
Protocol: Tango assay was conducted using HTLA cells in order to investigate the activity of the β-arrestin signaling system. Prior to transfection, the culture medium was replaced from DMEM containing 10% FBS, 100 U/mL penicillin, 100 μg/mL streptomycin, 2 μg/mL puromycin and 100 μg/mL hygromycin B to DMEM containing 10% dialyzed FBS, 100 U/mL penicillin and 100 μg/mL streptomycin. 4 hours later, transfection was conducted using 20 μg of a 5-HT7R-TCS-tTA construct (5-HT7R Tango DNA). The transfected cells were prepared on a white, flat, clear-bottom, 384-well plate (Greiner) (15,000 cells/well, 20 μL/well) using DMEM containing 10% dialyzed FBS, 100 U/mL penicillin and 100 μg/mL streptomycin. 6 hours later, after removing the culture medium, the cells were treated with 10 μL of the compound solution. After culturing for 22 hours and removing the culture medium, the cells were treated with 20 μL of a BrightGlo reagent (Promega) diluted in a 1×HBSS, […], pH 7.4 buffer. After measuring luminescence using a Tecan microplate reader (Spark), IC50 value was obtained using the Prism 8.0 program (GraphPad Software).

[3] = target: T1, 5-HT7R; assay: cAMP assay (luminescence-based, GloSensor); conditions: HEK293 cells transfected with human 5-HT7R and GloSensor-22F
Protocol: For luminescence-based cAMP assay, HEK293 cells were cultured on a 150-mm dish. Prior to transfection, the culture medium was replaced from DMEM containing 10% FBS, 100 U/mL penicillin and 100 μg/mL streptomycin to DMEM containing 10% dialyzed FBS, 100 U/mL penicillin and 100 μg/mL streptomycin. 4 hours later, transfection was conducted using 10 μg of a human 5-HT7R plasmid and 10 μg of a GloSensor-22F plasmid (Promega). The transfected cells were prepared on a white, flat, clear-bottom, 384-well plate (Greiner) (15,000 cells/well, 20 μL/well). 6 hours later, after removing the culture medium, the cells were treated with 20 μL of a 3% Glosensor cAMP reagent containing luciferin in a 1×HBSS, […], pH 7.4 buffer. In addition, the compound of each of the examples was prepared at different concentrations in an assay buffer containing 0.1% bovine serum albumin. 30 minutes later, 10 μL of the compound solution was treated to the cells. After measuring luminescence using a Tecan microplate reader (Spark), IC50 value was obtained using the Prism 8.0 program (GraphPad Software).

T1 sequence (P34969 whole entry): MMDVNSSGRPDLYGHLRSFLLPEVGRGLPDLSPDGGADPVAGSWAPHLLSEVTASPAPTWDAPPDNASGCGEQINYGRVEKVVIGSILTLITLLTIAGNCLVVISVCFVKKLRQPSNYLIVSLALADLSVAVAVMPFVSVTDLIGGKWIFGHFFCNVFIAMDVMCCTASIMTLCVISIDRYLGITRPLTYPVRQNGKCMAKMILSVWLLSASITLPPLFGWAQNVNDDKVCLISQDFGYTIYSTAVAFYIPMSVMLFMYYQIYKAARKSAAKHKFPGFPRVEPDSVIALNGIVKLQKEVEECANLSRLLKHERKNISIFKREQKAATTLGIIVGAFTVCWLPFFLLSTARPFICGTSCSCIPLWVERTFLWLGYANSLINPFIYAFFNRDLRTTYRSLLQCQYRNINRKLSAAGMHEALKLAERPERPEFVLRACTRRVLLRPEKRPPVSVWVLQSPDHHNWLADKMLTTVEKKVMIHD

Row | inhibition at 10 µM [2] | inhibition at 10 µM [3] | SMILES | Kb [1] | IC50 [2] | IC50 [3]
1 | 44.8% | 52.4% | Clc1cccc(-c2cc(C3=NCCN3)ccc2Cl)c1 [Compound 36, 2-(3′,6-dichloro-[1,1′-biphenyl]-3-yl)-4,5-dihydro-1H-imidazole] |  | 10 µM | 
2 | 23% | 55.3% | Cc1ccccc1-c1cccc(C2=NCCN2)c1 [Compound 27, 2-(2′-methyl-[1,1′-biphenyl]-3-yl)-4,5-dihydro-1H-imidazole] |  |  | 
3 | 14.1% | 38.1% | Clc1ccc(-c2cccc(CN3CCCC3)c2)cc1 [Compound 4, 1-((4′-chloro-[1,1′-biphenyl]-3-yl)methyl)pyrrolidine] |  |  | 
4 | 14% | 32.8% | COc1cccc(OC)c1-c1cccc(C2=NCCN2)c1 [Compound 33, 2-(2′,6′-dimethoxy-[1,1′-biphenyl]-3-v1)-4 1 5-dihydro-1H-imidazole] |  |  | 
5 | 11.4% | 51.8% | Cc1cccc(-c2cc(CN3CCCC3)ccc2Cl)c1 [Compound 17, 1-((6-chloro-3′methyl-[1,1′-biphenyl]-3-yl)methyl)pyrrolidine] |  |  | 
6 | 27.7% | 44.3% | COc1ccccc1-c1cc(C2=NCCN2)ccc1Cl [Compound 41, 2-(6-chloro-2′-methoxy-[1,1′-biphenyl]-3-yl)-4,5-dihydro-1H-imidazole] |  |  | 
7 | 39.6% | 43.3% | Clc1ccc(-c2cc(C3=NCCN3)ccc2Cl)cc1 [Compound 37, 2-(4′,6-dichloro-[1,1′-biphenyl]-3-yl)-4,5-dihydro-1H-imidazole] |  |  | 
8 | 43.6% | 50.9% | Clc1cccc(-c2cccc(C3=NCCN3)c2)c1 [Compound 25, 2-(3′-chloro-[1,1′-biphenyl]-3-yl)-4,5-dihydro-1H-imidazole] |  | 10.5 µM | 
9 | 23.4% | 49.8% | COc1cccc(-c2cc(C3=NCCN3)ccc2Cl)c1 [Compound 42, 2-(6-chloro-3′-methoxy-[1,1′-biphenyl]-3-yl)-4,5-dihydro-1H-imidazole] |  |  | 
10 | 31.6% | 48.4% | Clc1ccc(C2=NCCN2)cc1-c1ccccc1 [Compound 34, 2-(6-chloro-[1,1′-biphenyl]-3-yl)-4,5-dihydro-1H-imidazole] |  |  | 
11 | 20.6% | 32.5% | Cc1ccc(-c2cccc(CN3CCCC3)c2)cc1 [Compound 7, 1-((4′-methyl-[1,1′-biphenyl]-3-yl)methyl)pyrrolidine] |  |  | 
12 | 23.1% | 43% | Clc1ccc(-c2cccc(C3=NCCN3)c2)cc1 [Compound 26, 2-(4′-chloro-[1,1′-biphenyl]-3-yl)-4,5-dihydro-1H-imidazole] |  |  | 
13 | 27% | 48.1% | Cc1cccc(-c2cc(C3=NCCN3)ccc2Cl)c1 [Compound 39, 2-(6-chloro-3′-methyl-[1,1′-biphenyl]-3-yl)-4,5-dihydro-1H-imidazole] |  |  | 
14 | 18.6% | 44.7% | COc1ccc(-c2cc(CN3CCCC3)ccc2Cl)cc1 [Compound 21, 1-((6-chloro-4′-methoxy-[1,1′-biphenyl]-3-yl)methyl)pyrrolidine] |  |  | 
15 | 25% | 49.5% | Cc1ccccc1-c1cccc(CN2CCCC2)c1 [Compound 5, 1-((2′-methyl-[1,1′-biphenyl]-3-yl)methyl)pyrrolidine] |  |  | 
16 | 31.3% | 48.9% | Cc1ccc(-c2cc(C3=NCCN3)ccc2Cl)cc1 [Compound 40, 2-(6-chloro-4′-methyl-[1,1′-biphenyl]-3-yl)-4,5-dihydro-1H-imidazole] |  |  | 
17 | 36% | 47.6% | Clc1ccccc1-c1cccc(C2=NCCN2)c1 [Compound 24, 2-(2′-chloro-[1,1′-biphenyl]-3-yl)-4,5-dihydro-1H-imidazole] |  |  | 
18 | 18% | 57.1% | COc1ccccc1-c1cccc(CN2CCCC2)c1 [Compound 8, 1-((2′-methoxy-[1,1′-biphenyl]-3-yl)methyl)pyrrolidine] |  |  | 
19 | 21.5% | 36.8% | COc1ccc(-c2cc(C3=NCCN3)ccc2Cl)cc1 [Compound 43, 2-(6-chloro-4′-methoxy-[1,1-biphenyl]-3-yl)-4,5-dihydro-1H-imidazole] |  |  | 

Row | SMILES | inhibition at 10 µM [2] | inhibition at 10 µM [3] | Kb [1] | IC50 [2] | IC50 [3]
20 | c1ccc(-c2cccc(C3=NCCN3)c2)cc1 [Compound 23, 2-([1,1′-biphenyl]-3-yl)-4,5-dihydro-1H-imidazole] | 44.2% | 83.3% | 5.75 µM | 47.9 µM | 5.1 µM
21 | Clc1ccccc1-c1cc(CN2CCCC2)ccc1Cl [Compound 13, 1-((2′,6-dichloro-[1,1′-biphenyl]-3-yl)methyl)pyrrolidine] | 50.5% | 90.7% |  |  | 3.2 µM
22 | Cc1ccc(-c2cc(CN3CCCC3)ccc2Cl)cc1 [Compound 18, 1-((6-chloro-4′methyl-[1,1′-biphenyl]-3-yl)methyl)pyrrolidine] | 21.5% | 73.4% |  |  | 8.2 µM
23 | COc1cccc(-c2cccc(C3=NCCN3)c2)c1 [Compound 31, 2-(3′-methoxy-[1,1′-biphenyl]-3-yl)-4,5-dihydro-1H-imidazole] | 27.8% | 72.5% |  |  | 5.77 µM
24 | Clc1cccc(-c2cccc(CN3CCCC3)c2)c1 [Compound 3, 1-((3′-chloro-[1,1′-biphenyl]-3-yl)methyl)pyrrolidine] | 33.2% | 85.9% |  |  | 4.88 µM
25 | COc1cccc(-c2cc(CN3CCCC3)ccc2Cl)c1 [Compound 20, 1-((6-chloro-3′methoxy-[1,1′-biphenyl]-3-yl)methyl)pyrrolidine] | 26% | 70.1% |  |  | 7.48 µM
26 | COc1ccccc1-c1cccc(C2=NCCN2)c1 [Compound 30, 2-(2′-methoxy-[1,1′-biphenyl]-3-yl)-4,5-dihydro-1H-imidazole] | 40.6% | 94.1% | 1.26 µM | 39.8 µM | 2.58 µM
